≈ marks a conversion by molar mass, not a printed value.
Key:
Assay in all cases: in vitro antibacterial evaluation, MIC by broth dilution
Type in all cases: cell-based
Escherichia coli = details: 18 hours at 35° C.
Streptococcus sp. = details: broth dilution, 18 hours at 35° C.
In short: (§1)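 Broth dilution per NCCLS standard M7-A2 in Muller-Hinton II […], with an inoculum of 5×10^5 CFU/mL and antibiotic spanning 64-0.06 μg/mL. The MIC is the lowest concentration that inhibits growth of the organism.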

Staphylococcus sp. = details: broth dilution, 18 hours at 35° C.; for MIC Staphylococcus aureus (GC 1131): strain GC 1131
In short: as §1

Enterococcus sp. = details: broth dilution, 18 hours at 35° C.
In short: as §1

CC(c1ccccc1)C1NC(=O)CNC(=O)C(CO)NC(=O)C(C(O)C2CNC(=N)N2C2OC(CO)C(O)C(O)C2O)NC(=O)C(C(O)C2CNC(=N)N2)NC(=O)C(Cc2ccc(OC3OC(CO)C(OC4OC5COC(c6cccc(Oc7cccc(C(F)(F)F)c7)c6)OC5C(O)C4O)C(O)C3O)cc2)NC1=O (centres unmarked) [Example 184]
MIC Escherichia coli (ATCC 25922) (Escherichia coli): >64 µg/mL
MIC Escherichia coli (GC 4559) (Escherichia coli): >64 µg/mL
MIC Escherichia coli (GC 4560) (Escherichia coli): 32 µg/mL (≈ 20.7 µM)
MIC Streptococcus agalactiae (GC 4564) (Streptococcus sp.): 0.12 µg/mL (≈ 0.0777 µM)
MIC Streptococcus pneumoniae (ATCC 6301) (Streptococcus sp.): <0.06 µg/mL
MIC Streptococcus pneumoniae (GC 1894) (Streptococcus sp.): <0.06 µg/mL
MIC Streptococcus pneumoniae (GC 4565) (Streptococcus sp.): <0.06 µg/mL
MIC Streptococcus pyogenes (GC 4563) (Streptococcus sp.): 0.25 µg/mL (≈ 0.162 µM)
MIC Streptococcus pneumoniae (ATCC 6301) (Streptococcus sp.; inoculum 5×10^5 CFU/mL, strain ATCC 6301): <0.06 µg/mL
MIC Streptococcus pneumoniae (GC 1894) (Streptococcus sp.; inoculum 5×10^5 CFU/mL, strain GC 1894): <0.06 µg/mL
MIC Streptococcus pyogenes (GC 4563) (Streptococcus sp.; inoculum 5×10^5 CFU/mL, strain GC 4563): 0.25 µg/mL (≈ 0.162 µM)
MIC Streptococcus agalactiae (GC 4564) (Streptococcus sp.; inoculum 5×10^5 CFU/mL, strain GC 4564): 0.12 µg/mL (≈ 0.0777 µM)
MIC Streptococcus pneumoniae (GC 4565) (Streptococcus sp.; inoculum 5×10^5 CFU/mL, strain GC 4565): <0.06 µg/mL
MIC Staphylococcus aureus (GC 1131) (Staphylococcus sp.; inoculum 5×10^5 CFU/mL): 32 µg/mL (≈ 20.7 µM)
MIC Staphylococcus aureus (ATCC 29213) (Staphylococcus sp.; strain ATCC 29213): 32 µg/mL (≈ 20.7 µM)
MIC Staphylococcus aureus (GC 1131) (Staphylococcus sp.): 32 µg/mL (≈ 20.7 µM)
MIC Staphylococcus aureus (GC 3051) (Staphylococcus sp.; strain GC 3051): 32 µg/mL (≈ 20.7 µM)
MIC Staphylococcus aureus (GC 3053) (Staphylococcus sp.; strain GC 3053): 32 µg/mL (≈ 20.7 µM)
MIC Staphylococcus aureus (GC 4541) (Staphylococcus sp.; strain GC 4541): 32 µg/mL (≈ 20.7 µM)
MIC Staphylococcus aureus (GC 4542) (Staphylococcus sp.; strain GC 4542): 32 µg/mL (≈ 20.7 µM)
MIC Staphylococcus aureus-SMITH (GC 4543) (Staphylococcus sp.; strain GC 4543): 32 µg/mL (≈ 20.7 µM)
MIC Staphylococcus aureus (GC 4544) (Staphylococcus sp.; strain GC 4544): 32 µg/mL (≈ 20.7 µM)
MIC Staphylococcus aureus (GC 4545) (Staphylococcus sp.; strain GC 4545): 32 µg/mL (≈ 20.7 µM)
MIC Staphylococcus haemolyticus (GC 4546) (Staphylococcus sp.; strain GC 4546): 32 µg/mL (≈ 20.7 µM)
MIC Coagulase Negative Staphylococcus (GC 4547) (Staphylococcus sp.; strain GC 4547): 32 µg/mL (≈ 20.7 µM)
MIC Coagulase Negative Staphylococcus (GC 4548) (Staphylococcus sp.; strain GC 4548): 16 µg/mL (≈ 10.4 µM)
MIC Coagulase Negative Staphylococcus (GC 4549) (Staphylococcus sp.; strain GC 4549): 32 µg/mL (≈ 20.7 µM)
MIC Coagulase Negative Staphylococcus (GC 4551) (Staphylococcus sp.; strain GC 4551): 32 µg/mL (≈ 20.7 µM)
MIC Coagulase Negative Staphylococcus (GC 6257) (Staphylococcus sp.; strain GC 6257): 16 µg/mL (≈ 10.4 µM)
MIC Enterococcus avium (GC 4558) (Enterococcus sp.): 32 µg/mL (≈ 20.7 µM)
MIC Enterococcus faecalis (ATCC 29212) (Enterococcus sp.): 32 µg/mL (≈ 20.7 µM)
MIC Enterococcus faecalis (GC 2242) (Enterococcus sp.): 32 µg/mL (≈ 20.7 µM)
MIC Enterococcus faecalis (GC 2691) (Enterococcus sp.): 32 µg/mL (≈ 20.7 µM)
MIC Enterococcus faecalis (GC 3059) (Enterococcus sp.): 32 µg/mL (≈ 20.7 µM)
MIC Enterococcus faecalis (GC 4552) (Enterococcus sp.): 32 µg/mL (≈ 20.7 µM)
MIC Enterococcus faecalis (GC 4553) (Enterococcus sp.): 16 µg/mL (≈ 10.4 µM)
MIC Enterococcus faecalis (GC 4554) (Enterococcus sp.): 32 µg/mL (≈ 20.7 µM)
MIC Enterococcus faecalis (GC 6189) (Enterococcus sp.): 32 µg/mL (≈ 20.7 µM)
MIC Enterococcus faecium (GC 2243) (Enterococcus sp.): 16 µg/mL (≈ 10.4 µM)
MIC Enterococcus faecium (GC 4556) (Enterococcus sp.): 32 µg/mL (≈ 20.7 µM)
MIC Enterococcus faecium (GC 4557) (Enterococcus sp.): 32 µg/mL (≈ 20.7 µM)
MIC Enterococcus faecalis (ATCC 29212) (Enterococcus sp.; inoculum 5×10^5 CFU/mL, strain ATCC 29212): 32 µg/mL (≈ 20.7 µM)
MIC Enterococcus faecalis (GC 2242) (Enterococcus sp.; inoculum 5×10^5 CFU/mL, strain GC 2242): 32 µg/mL (≈ 20.7 µM)
MIC Enterococcus faecium (GC 2243) (Enterococcus sp.; inoculum 5×10^5 CFU/mL, strain GC 2243): 16 µg/mL (≈ 10.4 µM)
MIC Enterococcus faecalis (GC 2691) (Enterococcus sp.; inoculum 5×10^5 CFU/mL, strain GC 2691): 32 µg/mL (≈ 20.7 µM)
MIC Enterococcus faecalis (GC 3059) (Enterococcus sp.; inoculum 5×10^5 CFU/mL, strain GC 3059): 32 µg/mL (≈ 20.7 µM)
MIC Enterococcus faecalis (GC 4552) (Enterococcus sp.; inoculum 5×10^5 CFU/mL, strain GC 4552): 32 µg/mL (≈ 20.7 µM)
MIC Enterococcus faecalis (GC 4553) (Enterococcus sp.; inoculum 5×10^5 CFU/mL, strain GC 4553): 16 µg/mL (≈ 10.4 µM)
MIC Enterococcus faecalis (GC 4554) (Enterococcus sp.; inoculum 5×10^5 CFU/mL, strain GC 4554): 32 µg/mL (≈ 20.7 µM)
MIC Enterococcus faecium (GC 4556) (Enterococcus sp.; inoculum 5×10^5 CFU/mL, strain GC 4556): 32 µg/mL (≈ 20.7 µM)
MIC Enterococcus faecium (GC 4557) (Enterococcus sp.; inoculum 5×10^5 CFU/mL, strain GC 4557): 32 µg/mL (≈ 20.7 µM)
MIC Enterococcus avium (GC 4558) (Enterococcus sp.; inoculum 5×10^5 CFU/mL, strain GC 4558): 32 µg/mL (≈ 20.7 µM)
MIC Enterococcus faecalis (GC 6189) (Enterococcus sp.; inoculum 5×10^5 CFU/mL, strain GC 6189): 32 µg/mL (≈ 20.7 µM)

Reference: patent publication US6914045B2, “Glycopeptide antibiotics” (Wyeth Holdings Corporation, priority 2001, dated 2005)
